Reference: patent US11051515B2, “3-acyl-benzamides and their use as herbicides” (Bayer Aktiengesellschaft, priority 2017, dated 2021)

Key:
CYPES [1] = test: Pre-emergence action against CYPES; format: in vivo, Cyperus esculentus; conditions: pre-emergence, dosage 320 g/ha, scored visually after 3 weeks vs untreated controls
How it was run: (§1)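 Seeds sown in sandy loam in wood-fiber pots and covered with soil. Greenhouse growth; visual damage scored after 3 weeks versus untreated controls (100% = dead, 0% = like control).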

ECHCG [2] = test: Pre-emergence action against ECHCG; format: in vivo, Echinochloa crus-galli; conditions: pre-emergence, dosage 320 g/ha, scored visually after 3 weeks vs untreated controls
How it was run: as §1

LOLRI = test: Pre-emergence action against LOLRI; format: in vivo, Lolium rigidum; conditions: dosage 320 g/ha, scored visually after 3 weeks vs untreated controls
Text: (§2) Seeds of monocotyledonous and dicotyledonous weed plants and crop plants are laid out in sandy loam soil in wood-fiber pots and covered with soil. The compounds of the invention, formulated in the form of wettable powders (WP) or as emulsion concentrates (EC), are then applied to the surface of the covering soil in the form of an aqueous suspension or emulsion at a water application rate equating to […], with addition of 0.2% wetting agent. After the treatment, the pots are placed in a greenhouse and kept under good growth conditions for the trial plants. The damage to the test plants is scored visually after a test period of 3 weeks by comparison with untreated controls (herbicidal activity in percent (%): 100% activity=the plants have died, 0% activity=like control plants).

SETVI [3] = test: Pre-emergence action against SETVI; format: in vivo, Setaria viridis; conditions: pre-emergence, dosage 320 g/ha, scored visually after 3 weeks vs untreated controls
How it was run: as §1

ABUTH [4] = test: Pre-emergence action against ABUTH; format: in vivo, Abutilon theophrasti; conditions: pre-emergence, dosage 320 g/ha, scored visually after 3 weeks vs untreated controls
How it was run: as §1

AMARE [5] = test: Pre-emergence action against AMARE; format: in vivo, Amaranthus retroflexus; conditions: pre-emergence, dosage 320 g/ha, scored visually after 3 weeks vs untreated controls
How it was run: as §1

MATIN [6] = test: Pre-emergence action against MATIN; format: in vivo, Matricaria inodora; conditions: Dosage 320 g/ha, pre-emergence
How it was run: as §1

STEME [7] = test: Pre-emergence action against STEME; format: in vivo, Stellaria media; conditions: Dosage 320 g/ha, pre-emergence
How it was run: as §1

VIOTR [8] = test: Pre-emergence action against VIOTR; format: in vivo, Viola tricolor; conditions: Dosage 320 g/ha, pre-emergence
How it was run: as §1

VERPE [9] = test: Pre-emergence action against VERPE; format: in vivo, Veronica persica; conditions: Dosage 320 g/ha, pre-emergence
How it was run: as §1

STEME [10] = test: Post-emergence action against STEME; format: in vivo, Stellaria media; conditions: post-emergence, dosage 80 g/ha
How it was run: (§3)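 Post-emergence foliar spray on greenhouse plants at the one-leaf stage, using wettable-powder or emulsion-concentrate formulations in water (600 to […], plus 0.2% wetting agent). Damage scored by eye roughly 3 weeks later against untreated plants: 0% = like control, 100% = dead.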

ALOMY [11] = test: Pre-emergence action against ALOMY; format: in vivo, Alopecurus myosuroides; conditions: dosage 320 g/ha; pre-emergence; scored visually after 3 weeks vs untreated controls; 100% = plants have died, 0% = like control plants
How it was run: as §1

AVEFA [12] = test: Pre-emergence action against AVEFA; format: in vivo, Avena fatua; conditions: dosage 320 g/ha, scored visually after 3 weeks vs untreated controls
How it was run: as §1

PHBPU [13] = test: Pre-emergence action against PHBPU; format: in vivo, Pharbitis purpurea; conditions: Dosage 320 g/ha, pre-emergence
How it was run: as §1

POLCO [14] = test: Pre-emergence action against POLCO; format: in vivo, Polygonum convolvulus; conditions: Dosage 320 g/ha, pre-emergence
How it was run: as §1

HORMU = test: Pre-emergence action against HORMU; format: in vivo, Hordeum murinum; conditions: Dosage 320 g/ha
Text: as §2

ECHCG [15] = test: Post-emergence action against ECHCG; format: in vivo, Echinochloa crus-galli; conditions: post-emergence, dosage 80 g/ha, visual assessment about 3 weeks after treatment vs untreated controls
How it was run: as §3

SETVI [16] = test: Post-emergence action against SETVI; format: in vivo, Setaria viridis; conditions: post-emergence, dosage 80 g/ha, visual assessment about 3 weeks after treatment vs untreated controls
How it was run: as §3

ABUTH [17] = test: Post-emergence action against ABUTH; format: in vivo, Abutilon theophrasti; conditions: post-emergence, dosage 80 g/ha, visual assessment about 3 weeks after treatment vs untreated controls
How it was run: as §3

AMARE [18] = test: Post-emergence action against AMARE; format: in vivo, Amaranthus retroflexus; conditions: post-emergence, dosage 80 g/ha, visual assessment about 3 weeks after treatment vs untreated controls
How it was run: as §3

MATIN [19] = test: Post-emergence action against MATIN; format: in vivo, Matricaria inodora; conditions: post-emergence, dosage 80 g/ha, visual assessment about 3 weeks after treatment vs untreated controls
How it was run: as §3

PHBPU [20] = test: Post-emergence action against PHBPU; format: in vivo, Pharbitis purpurea; conditions: post-emergence, dosage 80 g/ha
How it was run: as §3

POLCO [21] = test: Post-emergence action against POLCO; format: in vivo, Polygonum convolvulus; conditions: post-emergence, dosage 80 g/ha
How it was run: as §3

VIOTR [22] = test: Post-emergence action against VIOTR; format: in vivo, Viola tricolor; conditions: post-emergence, dosage 80 g/ha
How it was run: as §3

VERPE [23] = test: Post-emergence action against VERPE; format: in vivo, Veronica persica; conditions: dosage 80 g/ha
How it was run: as §3

ALOMY [24] = test: Post-emergence action against ALOMY; format: in vivo, Alopecurus myosuroides; conditions: Dosage 80 g/ha, post-emergence
How it was run: as §3

AVEFA [25] = test: Post-emergence action against AVEFA; format: in vivo, Avena fatua; conditions: post-emergence, dosage 80 g/ha, visual assessment about 3 weeks after treatment vs untreated controls
How it was run: as §3

CYPES [26] = test: Post-emergence action against CYPES; format: in vivo, Cyperus esculentus; conditions: post-emergence, dosage 80 g/ha, visual assessment about 3 weeks after treatment vs untreated controls
How it was run: as §3

| Compound | Pre-emergence action against ALOMY (herbicidal activity in percent) (ALOMY [11]) [%] | Pre-emergence action against AVEFA (herbicidal activity) (AVEFA [12]) [%] | Pre-emergence action against ECHCG (herbicidal activity) (ECHCG [2]) [%] | SETVI (Table B8, pre-emergence herbicidal activity) (SETVI [3]) [%] | Pre-emergence action against ABUTH (herbicidal activity) (ABUTH [4]) [%] | Pre-emergence action against AMARE (herbicidal activity) (AMARE [5]) [%] | Pre-emergence action against MATIN (MATIN [6]) [%] | Pre-emergence action against PHBPU (PHBPU [13]) [%] | Pre-emergence action against STEME (STEME [7]) [%] | Pre-emergence action against VIOTR (VIOTR [8]) [%] | Pre-emergence action against VERPE (VERPE [9]) [%] | Post-emergence action against ECHCG (herbicidal action in percent) (ECHCG [15]) [%] | Post-emergence action against SETVI (herbicidal action in percent) (SETVI [16]) [%] | Post-emergence action against ABUTH (herbicidal action in percent) (ABUTH [17]) [%] | Post-emergence action against AMARE (herbicidal action in percent) (AMARE [18]) [%] | Post-emergence action against MATIN (herbicidal action in percent) (MATIN [19]) [%] | Post-emergence action against PHBPU (PHBPU [20]) | Post-emergence action against POLCO (POLCO [21]) | Post-emergence action against STEME (STEME [10]) | Post-emergence action against VIOTR (VIOTR [22]) | other results |
| --- | --- | --- | --- | --- | --- | --- | --- | --- | --- | --- | --- | --- | --- | --- | --- | --- | --- | --- | --- | --- | --- |
| Cn1nnnc1NC(=O)c1ccc(C(F)(F)F)c(C(=O)C(C)(C)C)c1Cl [1-143] |  |  |  |  |  |  |  |  |  |  |  |  |  |  |  |  |  |  |  |  | pest or weed control at 320 g/ha (CYPES [1]; Cyperus esculentus, 504 h, read-out: Pre-emergence action against CYPES (herbicidal activity)): 90%; pest or weed control at 320 g/ha (ECHCG [2]; Echinochloa crus-galli, 504 h, read-out: Pre-emergence action against ECHCG (herbicidal activity)): 100%; pest or weed control at 320 g/ha (LOLRI; Lolium rigidum, 504 h, read-out: Pre-emergence action against LOLRI (herbicidal activity)): 80%; pest or weed control at 320 g/ha (SETVI [3]; Setaria viridis, 504 h, read-out: SETVI (Table B8, pre-emergence herbicidal activity)): 90%; pest or weed control at 320 g/ha (ABUTH [4]; Abutilon theophrasti, 504 h, read-out: Pre-emergence action against ABUTH (herbicidal activity)): 100%; pest or weed control at 320 g/ha (AMARE [5]; Amaranthus retroflexus, 504 h, read-out: Pre-emergence action against AMARE (herbicidal activity)): 100%; pest or weed control at 320 g/ha (MATIN [6]; Tripleurospermum inodorum, 504 h): 100%; pest or weed control at 320 g/ha (STEME [7]; Stellaria media, 504 h): 100%; pest or weed control at 320 g/ha (VIOTR [8]; Viola tricolor, 504 h): 100%; pest or weed control at 320 g/ha (VERPE [9]; Veronica persica, 504 h): 100%; pest or weed control at 80 g/ha (STEME [10]; Stellaria media, 504 h): 100% |
| CCn1nnnc1NC(=O)c1ccc(C(F)F)c(C(C)=O)c1SC [2-65] | 100 | 100 | 100 | 100 | 100 | 100 | 90 | 100 | 100 | 100 | 100 | 80 | 100 | 100 | 100 | 100 | 90 | 100 | 100 | 100 | Pre-emergence action against CYPES (herbicidal activity) (CYPES [1]): 90%; Pre-emergence action against POLCO (POLCO [14]): 90%; Pre-emergence action against HORMU (HORMU): 80%; Post-emergence action against VERPE (VERPE [23]): 80 |
| CCn1nnnc1NC(=O)c1ccc(C(F)(F)F)c(C(=O)C(C)C)c1Cl [2-140] | 90 | 80 | 100 | 100 | 100 | 100 | 100 | 100 | 100 | 100 | 100 | 100 |  | 100 |  | 90 | 90 | 80 | 100 | 100 | Pre-emergence action against LOLRI (herbicidal activity) (LOLRI): 90%; Post-emergence action against ALOMY (ALOMY [24]): 80%; Post-emergence action against AVEFA (herbicidal action in percent) (AVEFA [25]): 80%; Post-emergence action against CYPES (herbicidal action in percent) (CYPES [26]): 80%; Post-emergence action against VERPE (VERPE [23]): 80 |
| CCn1nnnc1NC(=O)c1ccc(C(F)(F)F)c(C(=O)COC)c1Cl [2-144] | 100 | 100 | 100 | 100 | 100 | 100 | 100 | 100 | 100 | 100 | 100 | 100 | 100 | 90 | 100 | 90 | 100 |  | 100 | 100 | Pre-emergence action against CYPES (herbicidal activity) (CYPES [1]): 100%; Pre-emergence action against LOLRI (herbicidal activity) (LOLRI): 100%; Post-emergence action against VERPE (VERPE [23]): 90 |
| CCCn1nnnc1NC(=O)c1ccc(C(F)F)c(C(C)=O)c1SC [3-65] | 80 | 100 | 100 | 100 | 100 | 100 | 100 | 100 | 100 | 100 | 100 | 90 | 100 | 100 | 90 | 90 | 90 | 80 | 100 | 100 | Pre-emergence action against POLCO (POLCO [14]): 100%; Pre-emergence action against HORMU (HORMU): 100%; Post-emergence action against CYPES (herbicidal action in percent) (CYPES [26]): 80%; Post-emergence action against VERPE (VERPE [23]): 80 |
| CCCn1nnnc1NC(=O)c1ccc(C(F)F)c(C(C)=O)c1Cl [3-164] | 90 | 100 | 100 | 100 | 100 | 100 | 100 | 90 | 100 | 100 | 100 | 100 | 100 | 90 | 100 | 100 | 100 | 80 | 100 | 100 | Pre-emergence action against CYPES (herbicidal activity) (CYPES [1]): 100%; Pre-emergence action against LOLRI (herbicidal activity) (LOLRI): 90%; Pre-emergence action against POLCO (POLCO [14]): 100%; Post-emergence action against AVEFA (herbicidal action in percent) (AVEFA [25]): 80%; Post-emergence action against CYPES (herbicidal action in percent) (CYPES [26]): 90% |
